In brackets after ≈: the same amount, converted by molar mass.

The MIC is the smallest concentration in the dilution series that meets the test's criterion for growth inhibition. The low end stands for a more susceptible organism, the high end for a less susceptible organism.

The assay can be described thus: Antifungal activity against Candida albicans clinical isolate by serial twofold dilution microtitre plate method. It is filed as functional.

In turn, `COc1ccc2oc(=O)sc2c1C(=O)/C=C/c1ccc(OCCCN(C)C)cc1` yielded a minimal inhibitory concentration (MIC) of 1 µg/mL (≈ 2.42 µM).
